Experimental data from patent US6436978B1, “Guanidinylamino heterocycle compounds useful as α-2 adrenoceptor agonists” (The Procter & Gamble Co., priority 1996, dated 2002).

Tests used:
patient with glaucoma = test: Topical ophthalmic composition given to a patient with glaucoma, intraocular pressure; assay type: in vivo, human; conditions: Example G topical ophthalmic composition 0.10 % w/v, one-tenth of a mL into each eye
Protocol: One-tenth of a mL of the composition is administered directly into each eye of a patient with glaucoma.

[1] = tested on: human subject suffering from septic or cardiogenic shock; test: Intravenous solution given to a human subject suffering from septic or cardiogenic shock; assay type: in vivo; conditions: Example T solution 10 mg/ml carrier, approximately 2.0 ml intravenously
Protocol: The above ingredients are mixed, forming a solution. Approximately 2.0 ml of the solution is administered, intravenously, to a human subject suffering from septic or cardiogenic shock.

[2] = tested on: patient with nasal congestion; test: Composition given to a patient with nasal congestion; assay type: in vivo, human
Protocol: One tablet is swallowed by a patient with nasal congestion.
One tablet is chewed and swallowed by a patient with nasal congestion.
One tablet is placed under the tongue of a patient with nasal congestion and allowed to dissolve.
One-tenth of a mL of the composition is sprayed from a pump actuator into each nostril of a patient with nasal congestion.
One-fifth of a mL of the composition is applied as drops from a dropper into each nostril of a patient with nasal congestion.
One 15 mL dose of the alcohol-free liquid medication is swallowed by a patient with nasal congestion.

patient with migraine = test: Oral tablet given to a patient with migraine; assay type: in vivo, human; conditions: Example K oral tablet, 4 mg per tablet, one tablet swallowed
Text: One tablet is swallowed by a patient with migraine.

patient with asthma = test: Inhalation aerosol given to a patient with asthma; assay type: in vivo, human; conditions: Example F inhalation aerosol 5.0 % w/v, two puffs from a metered-dose inhaler
Text: Two-puffs of the aerosol composition is inhaled from a metered-dose inhaler by a patient with asthma.

[3] = tested on: patient with nasal congestion and runny nose due to allergic rhinitis; test: Oral liquid given to a patient with nasal congestion and runny nose due to allergic rhinitis; assay type: in vivo, human; conditions: Example H oral liquid, 15 mg with chlorpheniramine maleate 4 mg per 15 mL dose, one dose swallowed
Protocol: One 15 mL dose of the liquid composition is swallowed by a patient with nasal congestion and runny nose due to allergic rhinitis.

Row | Molecule | intraocular pressure (patient with glaucoma) | symptoms of septic or cardiogenic shock [1] | nasal congestion ([2]; Example B chewable tablet, 15.0 mg per tablet, one tablet chewed and swallowed) | nasal congestion ([2]; Example D intranasal solution 0.20 % w/v, one-tenth of a mL sprayed into each nostril) | nasal congestion ([2]; Example E intranasal gel 0.10 % w/v, one-fifth of a mL as drops into each nostril) | pain and aura of migraine (patient with migraine) | asthmatic condition (patient with asthma) | congestion and runny nose [3] | nasal congestion ([2]; Example A oral tablet, 20.0 mg per tablet, one tablet swallowed) | nasal congestion ([2]; Example C sublingual tablet, 2.00 mg per tablet, one tablet under the tongue) | nasal congestion ([2]; Example J alcohol-free oral liquid, 30 mg per 15 mL dose, one dose swallowed)
1 | Cc1c(NNC(=N)N)ccc2cccnc12 [Example 1, [(8-Methylquinolin-7-yl)amino]guanidine] | substantially reduced | symptoms subside | substantially reduced | substantially diminished | substantially reduced | substantially diminished |  |  |  |  | 
2 | [(4-Methylbenzimidazol-5-yl)amino]guanidine [Example 2] |  |  |  |  |  |  | effectively relieved | effectively reduced | substantially diminished | rapidly and substantially diminished | substantially diminished
